Data from patent US20120122820A1, “PRODRUGS AND THE USE THEREOF” (Bayer Schering Pharma Aktiengesellschaft, priority 2007, published 2012).
In brackets after ≈: the same amount, converted by molar mass. Structures can show the parent of a compound that is named as a salt.

Experiments:
[1] = tested on: heart rate of anesthetized rats; test: Influence on the heart rate of anesthetized rats; type: in vivo; details: maximum decrease in the first 30 min after i.v. bolus of 100 μg/kg of (A) or equivalent dosages; anesthetized male Wistar rats
Procedure: Male Wistar rats with a body weight above 250 g are employed. In the night before the experiment, the animals receive no feed but still have free access to drinking water. Preparation and investigations are carried out under Trapanal® anesthesia (100 mg/kg i.p.). Injection and infusion take place through a catheter in the jugular vein, and the blood pressure is recorded via a catheter in the femoral artery (transducer: Braun, Melsungen). After the preparation, the animals are connected to a continuous infusion of physiological saline solution to compensate fluid losses. Test substance or placebo solution are administered intravenously as bolus after an equilibration time of about 1 h. Heart rate and arterial blood pressure are recorded during the equilibration and over a period of at least 30 min after the bolus injection with the aid of a digital evaluation program.
Table 5 lists the maximum heart rate decrease in the first 30 min after an i.v. bolus of 100 μg/kg of the active substance (A) or of equivalent dosages of representative exemplary embodiments: […]

[2] = Oral pharmacokinetics in Wistar rats; type: in vivo; details: after oral administration (gavage), male Wistar rats
Procedure: (§1) On the day before administration of the substance, a catheter for obtaining blood is implanted in the jugular vein of the experimental animals (male Wistar rats, body weight 200-250 g) under Isofluran® anesthesia.
(§2) On the day of the experiment, a defined dose of the test substance is administered as solution into the stomach by gavage. Blood samples (8-12 time points) are taken through the catheter sequentially over the course of 24 h after administration of the substance. Plasma is obtained by centrifuging the samples in heparinized tubes. Acetonitrile is added to a defined plasma volume per time point to precipitate proteins. After centrifugation, test substance and, where appropriate, known cleavage products of the test substance in the supernatant are determined quantitatively using a suitable LC/MS-MS method.
The measured plasma concentrations are used to calculate pharmacokinetic parameters of the test substance and of the active ingredient compound (A) liberated therefrom, such as AUC, Cmax, T1/2 (half-life).

[3] = Stability in buffer at various pH values; type: physicochemical
Procedure: 0.3 mg of the test substance is weighed into a 2 ml HPLC vial and 0.5 ml of acetonitrile or acetonitrile/DMSO (9:1) is added. The substance is dissolved by putting the sample vessel in an ultrasonic bath for about 10 seconds. Then 0.5 ml of the respective (buffer) solution is added, and the sample is again treated in the ultrasonic bath.
• pH 4: 1 liter of Millipore water is adjusted to pH 4.0 with 1 N hydrochloric acid; • pH 5: 0.096 mol of citric acid and 0.2 mol of sodium hydroxide ad 1 liter of water; • pH 7.4: 90.0 g of sodium chloride, 13.61 g of potassium dihydrogen phosphate and 83.35 g of 1 N sodium hydroxide solution are made up to 1 liter with water; this solution is then further diluted 1:10 with Millipore water. • pH 8: 0.013 mol of borax and 0.021 mol of hydrochloric acid ad 1 liter of water.
5 μl portions of the sample solution are analyzed by HPLC for their content of unchanged test substance, and of parent substance (A) produced, every hour over a period of 24 hours at 37° C. The percentage areas of the appropriate peaks are used for quantification.
HPLC method for Examples 1-21:
Agilent 1100 with DAD (G1314A), binary pump (G1312A), autosampler (G1329A), column oven (G1316A), thermostat (G1330A); column: Kromasil 100 C18, 60 mm×2.1 mm, 3.5 μm; column temperature: 30° C.; eluent A: water+5 ml of perchloric acid/liter, eluent B: acetonitrile; gradient: 0-1.0 min 98% A, 2% B; 1.0-9.0 min 2% A, 98% B; 9.0-13.0 min 2% A, 98% B; 13.0-13.5 min 98% A, 2% B; 13.5-15.0 min 98% A, 2% B; flow rate: 0.75 ml/min; UV detection: 210 nm.
HPLC method for Examples 22-40:
The ratios of the peak areas (F) at the respective time points in relation to the peak areas at the starting time are shown in Table 3 for representative exemplary embodiments: […]

[4] = i.v. pharmacokinetics in Wistar rats; type: in vivo; details: after i.v. bolus administration, male Wistar rats
Procedure: as §1
as §2, with “tail vein using a Hamilton® glass syringe (bolus administration, duration of administration <10 s).” for “stomach by gavage.”
The measured plasma concentrations are used to calculate pharmacokinetic parameters of the test substance and of the active ingredient compound (A) liberated therefrom, such as AUC, Cmax, T1/2 (half-life) and CL (clearance).

[5] = Determination of the solubility (24 h shaking at room temperature, ultracentrifugation, HPLC); type: physicochemical; details: thermodynamic from solid
Procedure: The test substance is suspended in water or dilute hydrochloric acid (pH 4) [Examples 1-21] or in 5% strength aqueous dextrose solution [Examples 22-40]. This suspension is shaken at room temperature for 24 h. After ultracentrifugation at 224 000 g for 30 min, the supernatant is diluted with DMSO and analyzed by HPLC. A two-point calibration plot of the test compound in DMSO is used for quantification.
Agilent 1100 with DAD (G1315A), quat. pump (G1311A), autosampler CTC HTS PAL, degasser (G1322A) and column thermostat (G1316A); column: Phenomenex Gemini C18, 5 μm, 50 mm×2 mm; temperature: 40° C.; eluent A: water/phosphoric acid pH 2, eluent B: acetonitrile; flow rate: 0.7 ml/min; gradient: 0-0.5 min 85% A, 15% B; ramp 0.5-3 min 10% A, 90% B; 3-3.5 min 10% A, 90% B; ramp 3.5-4 min 85% A, 15% B; 4-5 min 85% A, 15% B.
Agilent 1100 with DAD (G1315A), quat. pump (G1311A), autosampler CTC HTS PAL, degasser (G1322A) and column thermostat (G1316A); column: VDSoptilab Kromasil 100 C18, 3.5 μm, 60 mm×2.1 mm; temperature: 30° C.; eluent A: water+5 ml of perchloric acid/liter, eluent B: acetonitrile; flow rate: 0.75 ml/min; gradient: 0-0.5 min 98% A, 2% B; ramp 0.5-4.5 min 10% A, 90% B; 4.5-6 min 10% A, 90% B; ramp 6.5-6.7 min 98% A, 2% B; 6.7-7.5 min 98% A, 2% B.

[6] = aqueous buffer, dilute hydrochloric acid (pH 4)

SMILES	Heart rate decrease [1] [%]	Detectability of the test substance (prodrug) in plasma [2]	% test substance after 4 h [F(t = 4 h) × 100/F(t = 0 h)] ([3]; pH 4, 37° C.) [%]	% test substance after 24 h [F(t = 24 h) × 100/F(t = 0 h)] ([3]; pH 4, 37° C.) [%]	% test substance after 4 h [F(t = 4 h) × 100/F(t = 0 h)] ([3]; pH 8, 37° C.) [%]	% test substance after 24 h [F(t = 24 h) × 100/F(t = 0 h)] ([3]; pH 8, 37° C.) [%]	Detectability of the test substance (prodrug) in plasma [4]	solubility at 24 h [5, 6] [µg/mL]	% test substance after 4 h [F(t = 4 h) × 100/F(t = 0 h)] ([3]; pH 7.4, 37° C.) [%]	% test substance after 24 h [F(t = 24 h) × 100/F(t = 0 h)] ([3]; pH 7.4, 37° C.) [%]	solubility at 24 h ([5]; saline or isotonic, 5% strength aqueous dextrose solution) [µg/mL]
N#Cc1c(N)nc(SCc2csc(-c3ccc(Cl)cc3)n2)c(C#N)c1-c1ccc(OCCOC(=O)CN)cc1 [Example 5, 2-{4-[2-Amino-6-({[2-(4-chlorophenyl)-1,3-thiazol-4-yl]methyl}thio)-3,5-dicyanopyridin-4-yl]-phenoxy}ethyl glycinate]	21	no longer detectable in plasma even at the first measurement point	100	100	94	68	no longer detectable in plasma even at the first measurement point	–	–	–	–
CN(C)CC(=O)OCCOc1ccc(-c2c(C#N)c(N)nc(SCc3csc(-c4ccc(Cl)cc4)n3)c2C#N)cc1 [Example 15, 2-{4-[2-Amino-6-({[2-(4-chlorophenyl)-1,3-thiazol-4-yl]methyl}thio)-3,5-dicyanopyridin-4-yl]-phenoxy}ethyl (N,N-dimethyl)glycinate]	21	no longer detectable in plasma even at the first measurement point	93	91	90	76	no longer detectable in plasma even at the first measurement point	240 (≈ 397 µM)	–	–	–
N#Cc1c(N)nc(SCc2csc(-c3ccc(Cl)cc3)n2)c(C#N)c1-c1ccc(OCCOC(=O)CCC(=O)O)cc1 [Example 19, 4-(2-{4-[2-Amino-6-({[2-(4-chlorophenyl)-1,3-thiazol-4-yl]methyl}thio)-3,5-dicyanopyridin-4-yl]-phenoxy}ethoxy)-4-oxobutanoic acid hydrochloride]	18	no longer detectable in plasma even at the first measurement point	–	–	–	–	–	57	–	–	–
N#Cc1c(N)nc(SCc2csc(-c3ccc(Cl)cc3)n2)c(C#N)c1-c1ccc(OCCOC(=O)[C@@H](N)CCCN)cc1 [Example 22, 2-{4-[2-Amino-6-({[2-(4-chlorophenyl)-1,3-thiazol-4-yl]methyl}thio)-3,5-dicyanopyridin-4-yl]-phenoxy}ethyl L-ornithinate dihydrochloride]	13	no longer detectable in plasma even at the first measurement point	100	100	–	–	no longer detectable in plasma even at the first measurement point	–	0	0	> 500
